Experimental data: US20050197336A1 (Miikana Therapeutics Corporation, priority 2004, published 2005)

Columns and labels:
[1] = system: Histone deacetylase (HDAC), HeLa cell nuclear extract; assay: In vitro fluorescent histone deacetylase assay (Biomol kit, HeLa cell nuclear extract); assay type: biochemical; details: compound at 100 μM; HeLa cell nuclear extract as HDAC source; substrate 50 μM; 10 min at room temperature
In short: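 HeLa nuclear extract supplies mixed HDAC activity acting on fluorogenic substrate at 50 μM final, 10 min at room temperature before stopping. Compounds serially diluted in assay buffer, final DMSO ≤2%. Fluorescence read at ex 355/em 460 nm.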

MCF7 cells = assay: Whole cell cytotoxicity assay: Sulforhodamine B; assay type: cell-based, human; details: Homo sapiens; compound at 100 μM; MCF7 cell growth; 48 hours with drug; SRB staining
In short: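 MCF7 cells in DMEM with 10% FBS were seeded 24 h before compound, then exposed to nine concentrations for 48 h at 37° C. TCA-fixed cells stained with sulforhodamine B; absorbance at 570 nm, with a time-zero plate fixed at drug addition.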

Structure (SMILES)	% inhibition HDAC @ 100 μM [1] [%]	inhibition at 100 µM (MCF7 cells) [%]
O=C(NO)c1cnc(N2CCN(S(=O)(=O)c3ccc(-c4cncnc4)cc3)CC2)s1 [Example 91, 2-[4-{(4-pyrimidine)benzenesulfonyl}-piperazin-1-yl]-thiazole-5-carboxylic acid hydroxyamide]	99	94.6
O=C(NO)c1cnc(N2CCN(S(=O)(=O)c3ccc(Oc4ccccc4)nc3)CC2)s1 [Example 47, 2-[4-(2-phenoxypyridine-5-sulfonyl)-piperazin-1-yl]-thiazole-5-carboxylic acid hydroxyamide]	96	90.2
CC(C)(C)c1ccc(S(=O)(=O)N2CCN(c3ncc(C(=O)NO)s3)CC2)cc1 [Example 25, 2-[4-(4-t-butylphenylsulfonyl)-piperazin-1-yl]-thiazole-5-carboxylic acid hydroxyamide]	98	90.1
O=C(NO)c1cnc(N2CCN(S(=O)(=O)c3ccc(-c4ccco4)cc3)CC2)s1 [Example 59, 2-(4-{[4-(2-furyl)phenyl]sulfonyl}piperazin-1-yl)-1,3-thiazole-5-carboxylic acid hydroxyamide]	99	98.9
Cl.O=C(NO)c1cnc(N2CCN(S(=O)(=O)c3ccc(-c4cccc(CN5CCCC5)c4)cc3)CC2)s1 [Example 75]	100	98.6
CN(C)Cc1ccc(-c2ccc(S(=O)(=O)N3CCN(c4ncc(C(=O)NO)s4)CC3)cc2)cc1 [Example 80]	99	97.9
CN(C)c1ccc(S(=O)(=O)N2CCN(c3ncc(C(=O)NO)s3)CC2)cc1 [Example 29, 2-[4-(4-dimethylaminophenylsulfonyl)-piperazin-1-yl]-thiazole-5-carboxylic acid hydroxyamide]	100	98.5
Cc1ccc(S(=O)(=O)N2CCN(c3ncc(C(=O)NO)s3)CC2)cc1Cl [Example 30, 2-[4-(3-chloro-4-methylphenylsulfonyl)-piperazin-1-yl]-thiazole-5-carboxylic acid hydroxyamide]	99	97.9
O=C(NO)c1cnc(N2CCN(S(=O)(=O)c3ccc(-c4ccc5c(c4)OCO5)cc3)CC2)s1 [Example 60, 2-(4-{[4-(1,3-benzodioxol-5-yl)phenyl]sulfonyl}piperazin-1-yl)-1,3-thiazole-5-carboxylic acid hydroxyamide]	99	92.1
